Test results from US11180483B2, “Substituted reverse pyrimidine Bmi-1 inhibitors” (PTC Therapeutics, Inc., priority 2012, dated 2021).

system: Bmi-1; test: Sandwich ELISA Assay (Bmi-1 ELISA) in HT-1080 cells; type: cell-based
Outline: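 Bmi-1 in lysates was measured by a three-antibody ELISA with TMB, OD450 minus OD570 reference, interpolated on a GST-tagged recombinant Bmi-1 standard curve, 0-8000 pg/mL. Lysates came from HT-1080 cells treated 40-48 h with compound, final DMSO 0.5%.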

| Structure (SMILES) | EC50 |
| --- | --- |
| Cc1ccc(Nc2nc(-n3c(C)nc4ccc([N+](=O)[O-])cc43)nc(N)c2F)cc1 [Cpd 232, 5-fluoro-2-(2-methyl-6-nitro-1H-benzimidazol-1-yl)-N-(4-methylphenyl)pyrimidine-4,6-diamine] | 10 to 100 nM |
| COc1ccc(Nc2nc(-n3c(C)nc4ccc([N+](=O)[O-])cc43)nc(N)c2F)cc1 [Cpd 233, 5-fluoro-N-(4-methoxyphenyl)-2-(2-methyl-6-nitro-1H-benzimidazol-1-yl)pyrimidine-4,6-diamine] | 10 to 100 nM |
| Cc1nc2ccccc2n1-c1nc(N)cc(Nc2ccc(OC(F)F)cc2)n1 [Cpd 234, N-[4-(difluoromethoxy)phenyl]-2-(2-methyl-1H-benzimidazol-1-yl)pyrimidine-4,6-diamine] | 10 to 100 nM |
| Cc1nc2ccccc2n1-c1nc(N)cc(Nc2ccc(OC(F)F)c(F)c2)n1 [Cpd 235, N-[4-(difluoromethoxy)-3-fluorophenyl]-2-(2-methyl-1H-benzimidazol-1-yl)pyrimidine-4,6-diamine] | 10 to 100 nM |
| Cc1nc2ccc([N+](=O)[O-])cc2n1-c1nc(N)c(F)c(Nc2ccc(C(F)(F)F)cc2)n1 [Cpd 236, 5-fluoro-2-(2-methyl-6-nitro-1H-benzimidazol-1-yl)-N-[4-(trifluoromethyl)phenyl]pyrimidine-4,6-diamine] | 100 to 3000 nM |
| Cc1nc2c(F)cc(F)cc2n1-c1nc(N)c(F)c(Nc2ccc(Cl)cc2)n1 [Cpd 237, N-(4-chlorophenyl)-2-(4,6-difluoro-2-methyl-1H-benzimidazol-1-yl)-5-fluoropyrimidine-4,6-diamine] | 10 to 100 nM |
| Cc1nc2c(F)cc(F)cc2n1-c1nc(N)c(F)c(Nc2ccc(OC(F)(F)F)cc2)n1 [Cpd 238, 2-(4,6-difluoro-2-methyl-1H-benzimidazol-1-yl)-5-fluoro-N-[4-(trifluoromethoxy)phenyl]pyrimidine-4,6-diamine] | 100 to 3000 nM |
| COc1ccc(Nc2nc(-c3c(C)nn4ccccc34)nc(N)c2F)cc1 [Cpd 239, 5-fluoro-N-(4-methoxyphenyl)-2-(2-methylpyrazolo[1,5-a]pyridin-3-yl)pyrimidine-4,6-diamine] | 10 to 100 nM |
| Cc1nc2c(F)cc(F)cc2n1-c1nc(N)c(F)c(Nc2ccc3c(c2)OCO3)n1 [Cpd 240, N-(1,3-benzodioxol-5-yl)-2-(4,6-difluoro-2-methyl-1H-benzimidazol-1-yl)-5-fluoropyrimidine-4,6-diamine] | 1 to 10 nM |
| Cc1ccc(Nc2nc(-n3c(C)nc4c(F)cc(F)cc43)nc(N)c2F)cc1 [Cpd 241, 2-(4,6-difluoro-2-methyl-1H-benzimidazol-1-yl)-5-fluoro-N-(4-methylphenyl)pyrimidine-4,6-diamine] | 10 to 100 nM |
| COc1ccc(Nc2nc(-n3c(C)nc4c(F)cc(F)cc43)nc(N)c2F)cc1 [Cpd 242, 2-(4,6-difluoro-2-methyl-1H-benzimidazol-1-yl)-5-fluoro-N-(4-methoxyphenyl)pyrimidine-4,6-diamine] | 1 to 10 nM |
| Cc1nc2cc(F)cc(F)c2n1-c1nc(N)c(F)c(Nc2ccc(C(F)(F)F)cc2)n1 [Cpd 243, 2-(5,7-difluoro-2-methyl-1H-benzimidazol-1-yl)-5-fluoro-N-[4-(trifluoromethyl)phenyl]pyrimidine-4,6-diamine] | 10 to 100 nM |
| COc1ccc2nc(C)n(-c3nc(N)c(F)c(Nc4ccc(C(F)(F)F)cc4)n3)c2c1 [Cpd 244, 5-fluoro-2-(6-methoxy-2-methyl-1H-benzimidazol-1-yl)-N-[4-(trifluoromethyl)phenyl]pyrimidine-4,6-diamine] | 10 to 100 nM |
| COc1ccc2nc(C)n(-c3nc(N)c(F)c(Nc4ccc(Cl)cc4)n3)c2c1 [Cpd 245, N-(4-chlorophenyl)-5-fluoro-2-(6-methoxy-2-methyl-1H-benzimidazol-1-yl)pyrimidine-4,6-diamine] | 10 to 100 nM |
| COc1ccc2nc(C)n(-c3nc(N)c(F)c(Nc4ccc(OC(F)(F)F)cc4)n3)c2c1 [Cpd 246, 5-fluoro-2-(6-methoxy-2-methyl-1H-benzimidazol-1-yl)-N-[4-(trifluoromethoxy)phenyl]pyrimidine-4,6-diamine] | 10 to 100 nM |
| COc1ccc2nc(C)n(-c3nc(N)c(F)c(Nc4ccc(OC(F)F)cc4)n3)c2c1 [Cpd 247, N-[4-(difluoromethoxy)phenyl]-5-fluoro-2-(6-methoxy-2-methyl-1H-benzimidazol-1-yl)pyrimidine-4,6-diamine] | 10 to 100 nM |
| COc1ccc2nc(C)n(-c3nc(N)c(F)c(Nc4ccc(C)cc4)n3)c2c1 [Cpd 248, 5-fluoro-2-(6-methoxy-2-methyl-1H-benzimidazol-1-yl)-N-(4-methylphenyl)pyrimidine-4,6-diamine] | 10 to 100 nM |
| COc1ccc(Nc2nc(-n3c(C)nc4ccc(OC)cc43)nc(N)c2F)cc1 [Cpd 249, 5-fluoro-2-(6-methoxy-2-methyl-1H-benzimidazol-1-yl)-N-(4-methoxyphenyl)pyrimidine-4,6-diamine] | 10 to 100 nM |
| COc1ccc2nc(C)n(-c3nc(N)c(F)c(Nc4ccc5c(c4)OCO5)n3)c2c1 [Cpd 250, N-(1,3-benzodioxol-5-yl)-5-fluoro-2-(6-methoxy-2-methyl-1H-benzimidazol-1-yl)pyrimidine-4,6-diamine] | 10 to 100 nM |

| Structure (SMILES) | EC50 |
| --- | --- |
| Cc1ccc(Nc2nc(-n3c(C)nc4cc([N+](=O)[O-])ccc43)nc(N)c2F)cc1 [Cpd 254, 5-fluoro-2-(2-methyl-5-nitro-1H-benzimidazol-1-yl)-N-(4-methylphenyl)pyrimidine-4,6-diamine] | 10 to 100 nM |
| COc1ccc(Nc2nc(-n3c(C)nc4cc([N+](=O)[O-])ccc43)nc(N)c2F)cc1 [Cpd 255, 5-fluoro-N-(4-methoxyphenyl)-2-(2-methyl-5-nitro-1H-benzimidazol-1-yl)pyrimidine-4,6-diamine] | 100 to 3000 nM |
| COc1ccc(Nc2nc(-n3c(C)nc4ccc(N)cc43)nc(N)c2F)cc1 [Cpd 256, 2-(6-amino-2-methyl-1H-benzimidazol-1-yl)-5-fluoro-N-(4-methoxyphenyl)pyrimidine-4,6-diamine] | 10 to 100 nM |
| Cc1nc2ccc(N)cc2n1-c1nc(N)c(F)c(Nc2ccc(OC(F)F)cc2)n1 [Cpd 257, 2-(6-amino-2-methyl-1H-benzimidazol-1-yl)-N-[4-(difluoromethoxy)phenyl]-5-fluoropyrimidine-4,6-diamine] | 10 to 100 nM |
| Cc1ccc(Nc2nc(-n3c(C)nc4ccc(N)cc43)nc(N)c2F)cc1 [Cpd 258, 2-(6-amino-2-methyl-1H-benzimidazol-1-yl)-5-fluoro-N-(4-methylphenyl)pyrimidine-4,6-diamine] | 1 to 10 nM |
| Cc1nc2cc(F)ccc2n1-c1nc(N)c(F)c(Nc2ccc(Cl)cc2)n1 [Cpd 259, N-(4-chlorophenyl)-5-fluoro-2-(5-fluoro-2-methyl-1H-benzimidazol-1-yl)pyrimidine-4,6-diamine] | 100 to 3000 nM |
| Cc1nc2cc(F)ccc2n1-c1nc(N)c(F)c(Nc2ccc(Cl)c(F)c2)n1 [Cpd 260, N-(4-chloro-3-fluorophenyl)-5-fluoro-2-(5-fluoro-2-methyl-1H-benzimidazol-1-yl)pyrimidine-4,6-diamine] | 100 to 3000 nM |
| Cc1nc2ccccc2n1-c1nc(N)c(F)c(Nc2ccc(Cl)c(F)c2)n1 [Cpd 261, N-(4-chloro-3-fluorophenyl)-5-fluoro-2-(2-methyl-1H-benzimidazol-1-yl)pyrimidine-4,6-diamine] | 10 to 100 nM |
| Cc1nc2ccc(F)cc2n1-c1nc(N)c(F)c(Nc2ccc(Cl)c(F)c2)n1 [Cpd 262, N-(4-chloro-3-fluorophenyl)-5-fluoro-2-(6-fluoro-2-methyl-1H-benzimidazol-1-yl)pyrimidine-4,6-diamine] | 10 to 100 nM |
| Cc1ccc(Nc2cc(N)nc(-n3c(C)nc4ccc(F)cc43)n2)cc1 [Cpd 264, 2-(6-fluoro-2-methyl-1H-benzimidazol-1-yl)-N-(4-methylphenyl)pyrimidine-4,6-diamine] | 1 to 10 nM |
| COc1ccc(Nc2cc(N)nc(-n3c(C)nc4ccc(F)cc43)n2)cc1 [Cpd 265, 2-(6-fluoro-2-methyl-1H-benzimidazol-1-yl)-N-(4-methoxyphenyl)pyrimidine-4,6-diamine] | 1 to 10 nM |
| CCc1nc2ccccc2n1-c1nc(N)c(F)c(Nc2ccc(C)cc2)n1 [Cpd 270, 2-(2-ethyl-1H-benzimidazol-1-yl)-5-fluoro-N-(4-methylphenyl)pyrimidine-4,6-diamine] | 1 to 10 nM |
| CCc1nc2ccccc2n1-c1nc(N)c(F)c(Nc2ccc(OC)cc2)n1 [Cpd 271, 2-(2-ethyl-1H-benzimidazol-1-yl)-5-fluoro-N-(4-methoxyphenyl)pyrimidine-4,6-diamine] | 1 to 10 nM |
| CCc1nc2ccccc2n1-c1nc(N)c(F)c(Nc2ccc(OC(F)(F)F)cc2)n1 [Cpd 272, 2-(2-ethyl-1H-benzimidazol-1-yl)-5-fluoro-N-[4-(trifluoromethoxy)phenyl]pyrimidine-4,6-diamine] | 10 to 100 nM |
| CCc1nc2ccccc2n1-c1nc(N)c(F)c(Nc2ccc3c(c2)OCO3)n1 [Cpd 273, N-(1,3-benzodioxol-5-yl)-2-(2-ethyl-1H-benzimidazol-1-yl)-5-fluoropyrimidine-4,6-diamine] | 1 to 10 nM |
| CCc1nc2ccccc2n1-c1nc(N)c(F)c(Nc2ccc(Cl)cc2)n1 [Cpd 274, N-(4-chlorophenyl)-2-(2-ethyl-1H-benzimidazol-1-yl)-5-fluoropyrimidine-4,6-diamine] | 10 to 100 nM |
| CCc1nc2ccccc2n1-c1nc(N)c(F)c(Nc2ccc(Cl)c(F)c2)n1 [Cpd 275, N-(4-chloro-3-fluorophenyl)-2-(2-ethyl-1H-benzimidazol-1-yl)-5-fluoropyrimidine-4,6-diamine] | 10 to 100 nM |
| Cc1ccc(Nc2nc(-n3c(C4CC4)nc4ccccc43)nc(N)c2F)cc1 [Cpd 276, 2-(2-cyclopropyl-1H-benzimidazol-1-yl)-5-fluoro-N-(4-methylphenyl)pyrimidine-4,6-diamine] | 1 to 10 nM |
| COc1ccc(Nc2nc(-n3c(C4CC4)nc4ccccc43)nc(N)c2F)cc1 [Cpd 277, 2-(2-cyclopropyl-1H-benzimidazol-1-yl)-5-fluoro-N-(4-methoxyphenyl)pyrimidine-4,6-diamine] | ≤ 1 nM |
